Results as given in patent US10905672B2, “Combination of baclofen, acamprosate and medium chain triglycerides for the treatment of neurological disorders” (PHARNEXT, priority 2014, dated 2021).
Entries after “also recorded” stand apart in the source; their conditions may differ.

What was measured:
[1] = tested on: Abeta 25-35 intoxicated mice; assay: Step-through passive avoidance test (contextual long-term memory) after icv Abeta 25-35; type: in vivo, Swiss mice
Protocol: (§1) Male Swiss mice are used throughout the study. Animals are housed in plastic cages, with free access to laboratory chow and water, except during behavioral experiments, and kept in a regulated environment, under a 12 h light/dark cycle (light on at 8:00 a.m.). Experiments are carried out in a soundproof and air-regulated experimental room to which mice have been habituated at least 30 min before each experiment.
Drug(s) is/are administered daily by gavage (per os). The Abeta 25-35 peptide and scrambled Abeta 25-35 peptide (control) have been dissolved in sterile bidistilled water, and stored at −20° C. until use. The Abeta peptides are then administered intracerebroventricularly (icy). In brief, each mouse is anesthetized lightly with ether, and a gauge stainless-steel needle is inserted unilaterally 1 mm to the right of the midline point equidistant from each eye, at an equal distance between the eyes and the ears and perpendicular to the plane of the skull. Peptides or vehicle are delivered gradually within approximately 3 s. […] The administration site is checked by injecting Indian ink in preliminary experiments. Neither insertion of the needle nor injection of the vehicle has a significant influence on survival, behavioral responses or cognitive functions. […]
On days 8 and 9, the contextual long-term memory of the animals is assessed using the step-through type passive avoidance procedure.
The apparatus is a two-compartment (15×20×15 cm high) box with one compartment being illuminated with white polyvinylchloride walls and the other compartment darkened with black polyvinylchloride walls and a grid floor. […] The step-through latency, that is, the latency spent to enter the darkened compartment, and the number of vocalizations is recorded. […] After 5 s the door is raised, and the step-through latency and the escape latency, i.e., the time spent to return into the white compartment, are recorded up to 300 s.

[2] = tested on: Abeta 25-35 intoxicated mice; assay: Spontaneous alternation performance, Y-maze test (spatial working memory) after icv Abeta 25-35; type: in vivo, Swiss mice; details: tested day 7
Protocol: as §1
Drug(s) is/are administered daily by gavage (per os). The Abeta 25-35 peptide and scrambled Abeta 25-35 peptide (control) have been dissolved in sterile bidistilled water, and stored at −20° C. until use. The Abeta peptides are then administered intracerebroventricularly (icy). In brief, each mouse is anesthetized lightly with ether, and a gauge stainless-steel needle is inserted unilaterally 1 mm to the right of the midline point equidistant from each eye, at an equal distance between the eyes and the ears and perpendicular to the plane of the skull. Peptides or vehicle are delivered gradually within approximately 3 s. […] The administration site is checked by injecting Indian ink in preliminary experiments. Neither insertion of the needle nor injection of the vehicle has a significant influence on survival, behavioral responses or cognitive functions.
On day −1, i.e., 24 h before the Abeta 25-35 peptide injection, drugs, candidate combinations, baclofen acamprosate mix, or the vehicle solution are administered per os by gavage twice daily (at 8:00 a.m. and 6:00 p.m.), and caprylic triglyceride is administered per os by gavage once daily (at 8:00 a.m.).
On day 0 (at 10:00 a.m.), mice are injected icy with Abeta 25-35 peptide or scrambled Abeta 25-35 peptide (control) in a final volume of 3 μL (3 mM).
Between day 0 and day 7, drugs, drug combinations or the vehicle solution are administered per os by gavage once or twice daily (at 8:00 a.m. for caprylic triglyceride or at 8:00 a.m. and 6:00 p.m. for baclofen and acamprosate). As a positive control, one animal group receives donepezil (reference compound—1 mg/kg/day) per os by gavage in a single injection (at 8:00 a.m.). Drugs are solubilized in water and freshly prepared just before each gavage administration.
On day 7, all animals are tested for spontaneous alternation performance in the Y-maze test, an index of spatial working memory (short-term memory).
On day 7, all animals are tested for spontaneous alternation performance in the Y-maze, an index of spatial working memory. The Y-maze is made of grey polyvinylchloride. Each arm is 40 cm long, 13 cm high, 3 cm wide at the bottom, 10 cm wide at the top, and converges at an equal angle. Each mouse is placed at the end of one arm and allowed to move freely through the maze during an 8 min session. The series of arm entries, including possible returns into the same arm, are checked visually. An alternation is defined as entries into all three arms on consecutive occasions. The number of maximum alternations is therefore the total number of arm entries minus two and the percentage of alternation is calculated as (actual alternations/maximum alternations)×100. Parameters include the percentage of alternation (memory index) and total number of arm entries (exploration index). Animals that show an extreme behavior (alternation percentage <25% or >85% or number of arm entries <10) are discarded. Usually, this accounts for 0-5% of the animals. […]

CC(=O)NCCCS(=O)(=O)O [acamprosate]
effect on memory defects (step-through latency) compared to Abeta 25-35 intoxicated animals ([1]; acamprosate monotherapy, 32 μg/kg/bid per os, FIG. 2-B): does not provide any improvement
effect on working memory (percentage of alternation) compared to Abeta 25-35 intoxicated animals ([2]; acamprosate alone, 32 μg/kg/bid per os, FIG. 1-B): No significant effect; also recorded: does not improve working memory

CCCCCCCC(=O)OCC(COC(=O)CCCCCCC)OC(=O)CCCCCCC [C8 MCT, caprylic triglyceride]
effect on memory defects (step-through latency) compared to Abeta 25-35 intoxicated animals ([1]; C8 MCT alone, 0.555, 1.66 and 5 g/kg/d per os, FIG. 2-A): does not provide any statistically significant effect
effect on working memory (percentage of alternation) compared to Abeta 25-35 intoxicated animals ([2]; caprylic triglyceride alone, 0.555, 1.66 and 5 g/kg/d per os once daily, FIG. 1-A): does not improve working memory
effect on working memory (percentage of alternation) compared to Abeta 25-35 intoxicated animals ([2]; caprylic triglyceride alone, 0.555, 1.66 and 5 g/kg/d per os once daily, FIG. 1-A, listed as caprylic triglyceride): No significant effect

NCC(CC(=O)O)c1ccc(Cl)cc1 (centres unmarked) [Baclofen, baclofen]
effect on memory defects (step-through latency) compared to Abeta 25-35 intoxicated animals ([1]; baclofen monotherapy, 480 μg/kg/bid per os, FIG. 2-B): does not provide any improvement
effect on working memory (percentage of alternation) compared to Abeta 25-35 intoxicated animals ([2]; baclofen alone, 480 μg/kg/bid per os, FIG. 1-B): does not improve working memory
effect on working memory (percentage of alternation) compared to Abeta 25-35 intoxicated animals ([2]; baclofen alone, 480 μg/kg/bid per os, FIG. 1-B, listed as baclofen): No significant effect
